Measurements as given in patent publication US20250049927A1, “MODIFIED OLIGONUCLEOTIDE-DRUG CONJUGATE AND USE THEREOF” (INTEROLIGO CORPORATION., priority 2021, published 2025).
Non-standard residues stand in square brackets, D forms with d. Residues, ends and D or L forms follow the SMILES beside them. *: point of attachment. Dolaproine = CO[C@@H]([C@@H]1CCCN1)[C@@H](C)C(=O)O; Dil = CC[C@H](C)[C@H](NC)[C@@H](CC(=O)O)OC; X1 = C[C@@H](N*)[C@@H](O)c1ccccc1; NMeV = CN[C@H](C(=O)O)C(C)C

Tests used:
[1] = test system: BxPC-3-Luc orthotopic pancreatic cancer; assay: Orthotopic pancreatic cancer animal model, patch-type collagen drug delivery system inserted at tumor site; format: in vivo, BALB/c-nude male mice; settings: 2.0 mg-loading collagen patch; for IVIS whole body image: change in luminescence / dead mice: inserted once; for IVIS whole body image: change in luminescence: 4 weeks; for dead mice: 28 days
From the text: To deliver the modified oligonucleotide-drug conjugates to an animal model, high-purity collagen (COLTRIX® Tendoregen, Ubiosis Co., Ltd.) dispersion (1.0%) and samples (e.g., modified oligonucleotide-drug conjugates, gemcitabine, etc.) to be tested were mixed, poured into a circular silicone mold having a diameter of 1 cm, and lyophilized to prepare a “patch-type collagen drug delivery system” in which the samples were loaded in the collagen. Amounts of the samples loaded per patch-type collagen drug delivery system are as shown in Table 3 below (in Table 3, SEQ ID NO: 16 is 5′-(Gem)(Gem)[TGG]4[TTG][TGG]5-3′, wherein Gem-Gemcitabine).
Specifically, each of sample (gemcitabine, IO101L (SEQ ID NO: 16) and modified oligonucleotide-drug conjugates (Example 5 and Example 9) to be tested was added to the high-purity collagen, and then uniformly mixed using a multi-mixer (SLRM-3, MYLAB) at 4° C. for 1 hour. Thereafter, a predetermined amount of the collagen-drug mixture was dispensed into a cylindrical silicone mold having a diameter of 1 cm and the collagen-drug mixture was primary frozen at −20° C. for 4 hours or more. After the first freezing was completed, the sample was separated from the cylindrical silicone mold and transferred to a sterile dish or plate, and then secondary frozen at −80° C. for 2 hours or more. After preliminary freezing so that the cold trap temperature of a lyophilizer was-80° C., the mixture was placed in the lyophilizer and lyophilized for more than 16 hours. The lyophilized mixture was compressed in the form of a patch using an acrylic plate, then was put into an aluminum pouch and sealed. The packaged patch-type collagen drug delivery system was refrigerated at 4° C.
The frozen cancer cell line (BxPC-3-Luc) (Asan Institute for Life Sciences) was thawed, and then cultured in an RPMI1640 medium (Biowest, Cat #. L0498-100) in which 10% fetal bovine serum (Biowest, Cat #. S1480) and 1% antibiotic (Gibco, Cat #. 15240062) were supplied at 37° C. under 5% CO2 condition. The thawed cells were cultured for one week to confirm that there were no problems with the shape, survival rate, and doubling time.
Cancer cells having a cell survival rate of 95% or more were prepared in order to transplant them into mice. The cells were harvested using trypsin, and prepared so as to transplant them into 5×10^5 cells/25 μl/mouse by being turbid in RPMI 1640 media. 6-week old BALB/c-nude male mice stabilized for 1 week (purchased from Jabio, Korea) were subjected to abdominal anesthesia, and the pancreas was taken out by dissecting the abdominal region of each anesthetized mouse and cells of 5×10^5 cells/25 μl were transplanted. After 2 weeks, tumor formation was confirmed through luciferase imaging. […] The patch-type collagen drug delivery system prepared in the above (1) was inserted (intra-abdominal cavity insertion using surgery) into the tumor site of each mouse in the respective groups. All animal experiments included in the present test were performed according to the Institutional Animal Care and Use Committee (IACUC) of the Asan Institute for Life Sciences [2022-14-058].
After inserting the patch-type collagen drug delivery system, changes in the tumor size were observed using IVIS imaging equipment (Xenogen IVIS spectrum system; Caliper Life Science, Inc., Hopkinton, MA) at an interval of 3 times a week for 4 weeks to check the body weight. […]

[2] = test system: BxPC-3 pancreatic cancer cell lines; assay: Pancreatic cancer cell growth inhibition, WST assay; format: cell-based; settings: BxPC-3, 72 hours treatment, absorbance 450 nm
Protocol: The in vitro anticancer efficacy of the modified oligonucleotide-drug conjugates was verified using pancreatic cancer cell lines. Pancreatic cancer cell lines (BxPC-3) were treated with the above-described examples and comparative examples at concentrations of 0, 0.01, 0.1, 1, 10, 100, 500 and 1000 μM, and the specific IC50 measurement method and measurement results are as follows.
All cell lines were cultured in a 5% CO2 incubator at 37° C. The BxPC-3 pancreatic cancer cell lines were cultured using a medium containing 10% FBS and 1% antibiotics put into ATCC modified RPMI-1640 (Thermo Scientific, USA). The medium was replaced once every 2-3 days, and passage-cultured at a time when about 70-90% of a culture dish was filled with the cells. First, the cells were washed with PBS, then 0.05% Trypsin-EDTA was added and cultured at 37° C. for 2 minutes, and then a new medium was added to inactivate trypsin. The cells were separated from trypsin and medium using a centrifuge, then another new medium was added and passaged at a ratio of 1:4, followed by culturing the same. All cells were periodically checked for contamination by mycoplasma using a kit (Intron, Korea), and in vitro efficacy evaluation experiments were conducted using only cells in which contamination was not detected.
Using WST reagent (Dongin LS, Korea), an inhibitory effect on pancreatic cancer cell growth by drug treatment was confirmed and IC50 was measured. An orange coloring substance called formazan is produced in WST by mitochondrial dehydrogenase within cells, which is effective only in living cells. The specific test method is as follows.
The cells cultured by the above-described method were dispensed by 2×10^4 into each well of a 96-well culture vessel and cultured for 24 hours. The medium of the cells attached to the culture vessel was replaced with an ATCC modified RPMI-1640 medium containing 5% FBS, and samples of the above-described modified oligonucleotide-drug conjugates (Examples 1-7 and 9-12, and Comparative Example 1-7, respectively) were treated at concentrations of 0, 0.01, 0.1, 1, 10, 100, 500 and 1000 μM. After 72 hours, 10 μl of WST reagent was added to each well and reacted for 2 hours. The produced formazan was measured with an absorbance at 450 nm using a Glomax plate meter (Promega, USA), and IC50 was evaluated according to the protocol in the device. IC50 evaluation results and graphs illustrating the same are shown in Table 2 below and FIGS. 19 to 27 (in Table 2, M=Gemcitabine, and N=5-FdU).

[3] = test system: Sprague-Dawley male rats; assay: Death of rats after intravenous administration in the pharmacokinetic study; format: in vivo; settings: MMAE 4 mg/kg intravenous
Protocol: Specifically, Sprague-Dawley male rats (8 weeks old, purchased from Youngbio) were acclimatized for 1 week in the animal room of the Catholic University Songsim Campus, and then pharmacokinetic experiments were performed. Rats were induced with isoflurane, an inhalation anesthetic, and PE50 (polyethylene tubing, Clay Adams, Becton Dickinson, NJ, USA) was inserted into the carotid (for blood collection) and jugular vein (for drug administration), followed by suturing with suture, and then end portions thereof were fixed to the back of the neck. During the surgery, anesthesia was maintained using ether, and about 0.5 mL of physiological saline solution containing heparin (20 units/mL) was injected to prevent blood from coagulating in the cannula. After completing the surgery, each rat was placed in a metabolic cage and allowed to fully recover from the anesthetic (for 4-5 hours). […] All of Example 9, MMAE and gemcitabine were dissolved in physiological saline at 2 mL per kg of body weight and administered into the jugular vein at doses of 40 mg/kg, 4 mg/kg and 2 mg/kg, respectively. […]

[4] = Pharmacokinetic evaluation in rats: plasma MMAE by LC-MS/MS; format: in vivo, Sprague-Dawley male rats; settings: rat, MMAE 4 mg/kg alone intravenous
Protocol: After pretreating samples by protein precipitation, plasma concentration of MMAE was analyzed using liquid chromatography-tandem mass spectrometry (hereinafter referred to as LC-MS/MS) established in the Pharmacology/Pharmacokinetics Laboratory of the Catholic University College of Pharmacy. All analysis processes were conducted under light-shielding conditions.
[…] standard products were dissolved in acetonitrile to prepare a 1 mg/mL of storage solution and store it frozen.

| Molecule | IVIS whole body image: change in luminescence [1] | dead mice [1] | IC50 [2] | effect of inhibiting tumor (IVIS images, tumor size and weight) [1] | death of tested rats [3] | AUC of MMAE up to 120 minutes higher than Example 9 (IO176) 40 mg/kg group [4] | plasma concentration of MMAE at 1 minute after administration [4] | AUCt of MMAE ([4]; to final quantification time) | AUC0-120 of MMAE ([4]; up to 120 minutes) |
| --- | --- | --- | --- | --- | --- | --- | --- | --- | --- |
| IO101L: SEQ ID NO: 16, 5′-(Gem)(Gem)[TGG]4[TTG][TGG]5-3′, Gem=Gemcitabine (DNA NNTGGTGGTGGTGGTTGTGGTGGTGGTGGTGG; two 5' gemcitabine nucleotides; modified_base 1 OTHER; gemcitabine; modified_base 2 OTHER) | luminescence was gradually increased over time | there were dead mice | – | – | – | – | – | – | – |
| Example 5 (GGTGGTGGTGGNNGNGGTGGTGGTGG; paclitaxel via acrylamide-C6-NH-succinic acid linker on U; modified_base 13 OTHER; deoxyuridine(dU); modified_base 12 OTHER; gemcitabine; modified_base 15 OTHER) | changes in the fluorescence were decreased | no dead mouse was observed | 100 nM | excellent effect of inhibiting tumor appeared | – | – | – | – | – |
| CC[C@H](C)[C@@H]([C@@H](CC(=O)N1CCC[C@H]1[C@H](OC)[C@@H](C)C(=O)N[C@H](C)[C@@H](O)c1ccccc1)OC)N(C)C(=O)[C@@H](NC(=O)[C@@H](NC)C(C)C)C(C)C [MMAE, Monomethyl auristatin E] (H-[NMeV]V[Dil][Dolaproine]-X1) | – | – | – | – | all tested 7 rats were died | about 9.70 times | 29640 ± 7190 ng/mL | 128 ± 16.1 µg·min/mL | 71.7 ± 9.61 µg·min/mL |
